Like-named read-outs stand apart in the source and are kept apart here. Bounds are passed on as bounds.

The target in experiment [1] is Ox receptor. Kind of experiment: Ox receptor binding, [3H]-rilmenidine displacement in human brain homogenates. Conditions: for Ki / Selectivity Ox/I2: human brain homogenates; for Ki: Table 5, read-out: Receptor Affinities (nM) Ox; for Selectivity Ox/I2: >1 = selectivity for the Ox receptor.
Text: Measurement of the affinity and selectivity of such compounds for the a2-adrenoceptor, I2-receptor and Ox receptor binding sites may be carried out by either of two procedures, i.e. ligand displacement studies in membranes of brain and kidney or by autoradiography of brain and kidney sections. In both cases the radioligand is tritiated rilmenidine ([^3H]-RIL).
Male WKY rats are stunned and decapitated. The brains are removed and the forebrain dissected free, then frozen over liquid nitrogen before being stored at −70° C. Human brain cortex samples are obtained within 28 hours of death and frozen over liquid nitrogen before being stored at −70° C. On the day of the measurement the cortex (human or rat) is homogenised in 20 vol ice-cold 50 mM Tris.HCl buffer (pH 7.4) using a Polytron tissue homogeniser. The homogenate is centrifuged at 37000×g for 10 min and the pellet resuspended in 20 vol of fresh buffer and recentrifuged. The pellet is then resuspended in 33 vol of 50 mM Tris.HCl buffer for use in binding assays.
After incubation for 30 min at 25° C., the membranes are recovered by filtration onto Whatman GF/B glass fibre filters presoaked in 1.0% polyethyleneimine. The filters are washed 3 times with cold assay buffer before measurement of bound radioactivity by scintillation counting.
In experiment [2] the target is I2-receptor. Kind of experiment: I2-receptor binding, [3H]-idazoxan displacement in human brain homogenates. Conditions: for Ki: human brain homogenates, Table 5, read-out: Receptor Affinities (nM) I2.
Experiment [3] deals with I2-receptor. Description: I2-receptor binding, [3H]-idazoxan displacement in rat brain homogenates. The note with it: for Ki: rat brain homogenates, Table 3, read-out: Receptor Affinities (nM) I2; for affinity for the I2-receptor (in words): rat. How it is done:
Male WKY rats are stunned and decapitated.
Brain membranes prepared as above, are incubated in the presence of [^3H]-methoxyidazoxan (52-57 Ci/mmol) 0.5 nM or [^3H]-idazoxan (43-45Ci/mmol) 1.6 nM in Tris.HCl buffer pH 7.4 for α2-adrenoceptor and I2-receptor binding respectively. Inhibition of binding is measured in the presence of increasing amounts of test compound (0.1 nM to 1 mM). Non-specific binding is estimated by addition of 10 μM phentolamine or 100 μM cirazoline respectively. Membrane bound radioactivity is isolated and measured as above by vacuum filtration, washing and scintillation counting. Data is analysed by the “RADLIG” program.

For experiment [4], the target named is α2-adrenoceptor. Kind of experiment: α2-adrenoceptor binding, [3H]-methoxyidazoxan displacement in rat brain homogenates. The note with it: for Ki: rat brain homogenates, Table 4, read-out: Receptor Affinities (nM) α2; for affinity for the α2-adrenoceptor (in words): rat.
Experimental: Male WKY rats are stunned and decapitated. The brains are removed and the forebrain dissected free, then frozen over liquid nitrogen before being stored at −70° C. […] On the day of the measurement the cortex (human or rat) is homogenised in 20 vol ice-cold 50 mM Tris.HCl buffer (pH 7.4) using a Polytron tissue homogeniser. The homogenate is centrifuged at 37000×g for 10 min and the pellet resuspended in 20 vol of fresh buffer and recentrifuged. The pellet is then resuspended in 33 vol of 50 mM Tris.HCl buffer for use in binding assays.
In experiment [5] the test system is Ox receptor. Kind of experiment: Ox receptor binding, [3H]-rilmenidine displacement in rat brain homogenates. The note with it: for Ki: read-out: Receptor Affinities (nM) Ox; for affinity for the Ox receptor (in words): rat.
Experimental: Receptor Affinities and Selectivities of Selected Drugs for Ox receptors, α2-adrenoceptors and I2-receptors in Rat Brain Homogenates
In both cases the radioligand is tritiated rilmenidine ([^3H]-RIL).
Male WKY rats are stunned and decapitated. The brains are removed and the forebrain dissected free, then frozen over liquid nitrogen before being stored at −70° C. Human brain cortex samples are obtained within 28 hours of death and frozen over liquid nitrogen before being stored at −70° C. On the day of the measurement the cortex (human or rat) is homogenised in 20 vol ice-cold 50 mM Tris.HCl buffer (pH 7.4) using a Polytron tissue homogeniser. The homogenate is centrifuged at 37000×g for 10 min and the pellet resuspended in 20 vol of fresh buffer and recentrifuged. The pellet is then resuspended in 33 vol of 50 mM Tris.HCl buffer for use in binding assays. Where adrenaline is used in binding assays the buffer also contains 25 μM EDTA and 10 μM pargyline.
After incubation for 30 min at 25° C., the membranes are recovered by filtration onto Whatman GF/B glass fibre filters presoaked in 1.0% polyethyleneimine. The filters are washed 3 times with cold assay buffer before measurement of bound radioactivity by scintillation counting. The binding data are analysed by an iterative non-linear computerised curve fitting program “RADLIG” version 4.0 (McPherson, 1983).
For experiment [6], the system named is Ox receptor. Description: Selectivity data of Table 1 (Ox over alpha2), tissue not stated. Type of experiment: binding. Conditions: tissue and species not stated. The source says:
The term “selectivity” as used herein refers to the selectivity of a compound for the Ox receptor over another receptor in mammalian tissue containing said receptors. The selectivity is the reciprocal of the ratio of the affinities (in nM) for each receptor site. Preferably the tissue is human tissue.
The compounds prepared above are represented in Table 1 below together with selectivity data where available.

[7] abbreviates: rat brain homogenates, reciprocal of the ratio of affinities, >1 = more selective for Ox site.
The mark [8] stands for this setting: human brains, compared with rat.

Regarding `FC(F)(F)C(NC1=NCCO1)C1CC1` (single isomer, unassigned; (+)) [(+)-S8349], the Ki came out at 268 nM in experiment [1] and 13000 nM in experiment [2]. The “Selectivity Ox/I2” value in experiment [1] was 49.

Regarding `FC(F)(F)C(NC1=NCCO1)C1CC1` (single isomer, unassigned; (-)) [(−)-S8350], the results for the Ki in experiment [1] and in experiment [2] were 199 nM and 7700 nM, respectively. Moreover, the “Selectivity Ox/I2” value in experiment [1] amounted to 32.

With `C[C@@H](NC1=NCCO1)C1CCCCC1` [(R)-(−)-O504, (R-(−)-2-(1-Cyclohexylethylamino)-oxazoline)], the Ki was 56 nM in experiment [3]; 590 nM in experiment [4]; 300 nM in experiment [1]; 2700 nM in experiment [2]; 31 nM in experiment [5] (rat brain homogenates, Table 3); 32 nM in experiment [5] (rat brain homogenates, Table 4). The entries for the “Selectivity Ox/I2” value in experiment [1] and in experiment [5] were 9 and 1.8, respectively. Also, the “Selectivity Ox/α2” value in experiment [5] is recorded as 18.

With `C[C@H](NC1=NCCO1)C1CCCCC1` [(S)-(+)-O504, (S)-(+)-2-(1-Cyclohexylethylamino)-oxazoline], the Ki in experiment [3] was found to be 707 nM; in experiment [4] it was 30 nM; in experiment [1] it was 180 nM; in experiment [2] it was 2190 nM; in experiment [5] (rat brain homogenates, Table 3) it was 106 nM; in experiment [5] (rat brain homogenates, Table 4), 20 nM. The “Selectivity Ox/I2” value is listed as 12 in experiment [1] and 6.7 in experiment [5]. In addition, the “Selectivity Ox/α2” value in experiment [5] came out at 1.5.

`C[C@H](NC1=NCCO1)c1cccc2ccccc12` [(S)-(−)-O506]: in experiment [1], the Ki amounted to 99 nM and the “Selectivity Ox/I2” value is recorded as 77. Also, in experiment [2], the Ki worked out at 7580 nM.

Consider `CCC1CCCC(C)C1NC1=NCCO1` (stereo not shown) [BAY-A6781], for which, in experiment [1], the Ki came to 215 nM and the “Selectivity Ox/I2” value came out at 38. For the same compound, the Ki in experiment [2] was found to be 8250 nM.

For the compound `c1ccc2nc(C3=NCCN3)ccc2c1` [BU-224, 2-(4,5-dihydroimidaz-2-yl)quinoline], in experiment [3], the “affinity for the I2-receptor (in words)” value is on record as “high affinity (nM)”. Besides, the Ki in experiment [3] was 0.9 nM; in experiment [4], 5480 nM; in experiment [1], 9580 nM; in experiment [2], 2.2 nM; in experiment [5] (rat brain homogenates, Table 3), more than 100000 nM; in experiment [5] (rat brain homogenates, Table 4), more than 100000 nM. In experiment [4], the “affinity for the α2-adrenoceptor (in words)” value is given as “poor affinity (μM)”. The “Selectivity Ox/I2” value in experiment [1] is reported as 0.0002. In addition, the “affinity for the Ox receptor (in words)” value in experiment [5] is on record as “poor (μM) affinity”. In addition, the “Selectivity Ox/α2” value in experiment [5] (setting [7]) is given as less than 0.1.

Turning to `CCC1CCCC(CC)C1NC1=NCCO1` (stereo not shown) [Compound O501], the Ki in experiment [3] was 6900 nM; in experiment [4], 210 nM; in experiment [1] it was 38 nM; in experiment [2], 9100 nM; in experiment [5] (rat brain homogenates, Table 3) it was 18 nM; in experiment [5] (rat brain homogenates, Table 4) it was 18 nM. In addition, the “Selectivity Ox/I2” value is listed as 239 in experiment [1] and 383 in experiment [5]. In addition, in experiment [5], the “Selectivity Ox/α2” value worked out at 12.

Take `c1ccc(C(NC2=NCCO2)c2ccccc2)cc1` [Compound O502]: the Ki in experiment [3] came out at 1900 nM; in experiment [4], 380 nM; in experiment [1], 234 nM; in experiment [2] it was 686 nM; in experiment [5] (rat brain homogenates, Table 3), 160 nM; in experiment [5] (rat brain homogenates, Table 4), 160 nM. Also, the entries for the “Selectivity Ox/I2” value in experiment [1] and in experiment [5] were 3 and 12, respectively. Besides, in experiment [5], the “Selectivity Ox/α2” value came to 2.4.

`C1CCC(C(NC2=NCCO2)C2CCCCC2)CC1` [Compound O503]: the Ki in experiment [3] was 3800 nM; in experiment [4], 640 nM; in experiment [1], 70 nM; in experiment [2] it was 4800 nM; in experiment [5] (rat brain homogenates, Table 3), 117 nM; in experiment [5] (rat brain homogenates, Table 4), 117 nM. Besides, the “Selectivity Ox/I2” value in experiment [1] came to 69; in experiment [5], 32. For the same compound, the “Selectivity Ox/α2” value in experiment [5] is 5.5.

With `Oc1ccc(CCNC2=NCCO2)cc1` [Compound O508, 2-(4-hydroxyphenyl)ethylaminooxazoline], the “Selectivity Ox/apha2” value in experiment [6] came out at 100.

As for `CC(CNC1=NCCO1)c1ccc(OCc2ccccc2)cc1` (stereo not shown) [Compound O509, 2-(4-benzyloxyphenyl)propylaminooxazoline], the “Selectivity Ox/apha2” value in experiment [6] was 2.0.

As for `c1ccc2c(c1)OCC(C1=NCCN1)O2` (stereo not shown) [Idazoxan, 2-(1,4-benzodioxan)-imidazoline], the “affinity for the I2-receptor (in words)” value in experiment [3] was “high affinity (nM)”. Further, the Ki in experiment [3] was determined as 2.3 nM; in experiment [4], 15.6 nM; in experiment [1], 6060 nM; in experiment [2] it was 4.8 nM; in experiment [5] (rat brain homogenates, Table 3), 62300 nM; in experiment [5] (rat brain homogenates, Table 4), 62300 nM. Besides, the “affinity for the α2-adrenoceptor (in words)” value in experiment [4] is on record as “high affinity (nM)”. Also, the “Selectivity Ox/I2” value in experiment [1] is given as 0.0008; in experiment [5] (setting [7]) it was 0.00004. Moreover, the “affinity for the Ox receptor (in words)” value in experiment [5] is recorded as “poor (μM) affinity”. Also, the “Selectivity Ox/α2” value in experiment [5] (setting [7]) turned out to be 0.0003.

For the compound `COC1(C2=NCCN2)COc2ccccc2O1` (stereo not shown) [Methoxyidazoxan, 2-(2-methoxy-1,4-benzodioxan)-imidazoline)], in experiment [3], the “affinity for the I2-receptor (in words)” value is listed as “poor affinity (μM)”. Further, the Ki is 24400 nM in experiment [3]; 1.9 nM in experiment [4]; 100000 nM in experiment [1]; more than 100000 nM in experiment [2]; 319000 nM in experiment [5] (rat brain homogenates, Table 3); 319000 nM in experiment [5] (rat brain homogenates, Table 4). Moreover, the “affinity for the α2-adrenoceptor (in words)” value in experiment [4] is “high affinity (nM)”. The “Selectivity Ox/I2” value turned out to be 1 in experiment [1] and 0.08 in experiment [5]. In experiment [5], the “affinity for the Ox receptor (in words)” value is “poor affinity (μM)”.

Consider `C1COC(NC(C2CC2)C2CC2)=N1` [Rilmenidine], for which the figures for the “affinity for the I2-receptor (in words)” value in experiment [3] and in experiment [2] (setting [8]) were “high affinity (nM)” and “lower affinity”, respectively. Further, the Ki in experiment [3] was 36 nM; in experiment [4], 410 nM; in experiment [1], 396 nM; in experiment [2], 5220 nM; in experiment [5] (rat brain homogenates, Table 3) it was 15 nM; in experiment [5] (rat brain homogenates, Table 4), 15 nM. Further, the “Selectivity Ox/I2” value in experiment [1] turned out to be 13; in experiment [5] (setting [7]), 2.4. The “affinity for the Ox receptor (in words)” value in experiment [1] (setting [8]) was “lower affinity”; in experiment [5] it was “high affinity (nM)”. In addition, the “Selectivity Ox/α2” value in experiment [5] (setting [7]) is on record as 27.

Values taken from patent US20050119461A1, “Novel receptor, and compounds which bind thereto” (THE UNIVERSITY OF MELBOURNE, priority 1997, published 2005).
